# Assays:
# Human Mek1 Kinase = Human Mek1 Kinase (Homo sapiens, UniProt Q02750, S218E/S222E); assay: MEK-1 Enzyme Assay (LANCE-HTRF); assay type: biochemical; conditions: constitutively active MEK-1EE, ERK-2K52A substrate, 9 μM ATP, 1.5 hrs room temperature
# Protocol: Assay 1: MEK-1 Enzyme Assay (LANCE-HTRF)
# Inhibition of Human Mek1 Kinase Activity was Monitored with a Homogenous, fluorescence-based assay. The assay uses time resolved fluorescence resonance energy transfer to probe for phosphorylation of ERK1 by MEK1. The detailed procedure is described in the following:
# Constititutively active MEK-1EE (150 ng/well) and ERK-2K52A (110 ng/well) were incubated in black, 384 well Optiplates (Perkin Elmer) for 1.5 hrs at room temperature, in the presence of increasing concentrations of inhibitors. The total reaction volume was 50 μl. The inhibitors were serial diluted in kinase buffer (9 μM ATP, 50 mM Tris-HCl pH 8.0, 10 mM MgCl2, 1 mM DTT and 100 μM Na3VO4), to a final concentration of 1% DMSO. At the end of the incubation, the enzyme reaction was quenched by adding 50 μl of assay buffer containing 50 mM Tris-HCl, 50 mM EDTA, 0.1% BSA and a mixture of 1.25 ug/ml europium labeled anti-phosphotyrosine mAb (Perkin Elmer) and 5 μg/ml of allophycocyanin labeled anti-GST antibody (CIS-US). Plates were agitated on a plate shaker for 30 minutes and the phosphorylation of the ERK-2K52A substrate was measured by homogeneous time resolved fluorescence (HTRF) at 340 nm excitation and 665 nm (Europium)/615 nm (APC) emission filters on the VICTOR V fluorescence plate reader. Phosphorylation is expressed as a ratio of 665 nM signal×10,000/615 nM signal. To assess the inhibitory potential of the compounds, IC50-values were determined. Results are shown in Table 1, column 2, where “+++” indicates IC50 values below 1 μM, “++” indicates IC50 values below 10 μM and above 1 μM, and “+” indicates IC50 values above 10 μM.
# Murine colon C26 cells = assay: Tumor Cell Proliferation Assay (ATP Lite), C26; assay type: cell-based; conditions: Mus musculus, 96 h, 4 days incubation, ATPlite
# Protocol: (§1) Assay 2: Tumor Cell Proliferation Assays (ATP Lite)
# (§2) Murine colon C26 (1500 cells/well), human melanoma A375 (2000 cells/well), or human pancreatic MiaPaCa-2 cells (2000 cells/well) were plated in white, 96 well plates (Corning) in growth media (DMEM with 10% fetal bovine serum, 2 mM glutamine for C26 and MiaPaCa-2, and RPMI with 10% fetal bovine serum, 2 mM glutamine for A375) and cultured overnight at 37° C. in a humidified, 5% CO2 incubator. Inhibitors were serially diluted in 100% DMSO and subsequently added to the cells, in growth media, to reach a final concentration of 0.25% DMSO. The cells were incubated for 4 days in the presence of the test compounds and the proliferation was quantitated using the ATPlite cell proliferation kit (Packard). Results of cell proliferation assay are shown in Table 1. columns 3-5, where “+++” indicates IC50 values below 1 μM, “++” indicates IC50 values below 10 μM and above 1 μM, and “+” indicates IC50 values above 10 μM.
# [1] = test system: human melanoma A375 cells; assay: Tumor Cell Proliferation Assay (ATP Lite), A375; assay type: cell-based; conditions: A-375, 96 h, 4 days incubation, ATPlite
# Protocol: as §1, §2
# [2] = test system: human pancreatic MiaPaCa-2 cells; assay: Tumor Cell Proliferation Assay (ATP Lite), MiaPaCa-2; assay type: cell-based; conditions: MIA PaCa-2, 96 h, 4 days incubation, ATPlite, read-out: MiaPaCa2
# Protocol: as §1, §2
# Human Mek1 Kinase, sequence (Q02750 whole entry S218E/S222E): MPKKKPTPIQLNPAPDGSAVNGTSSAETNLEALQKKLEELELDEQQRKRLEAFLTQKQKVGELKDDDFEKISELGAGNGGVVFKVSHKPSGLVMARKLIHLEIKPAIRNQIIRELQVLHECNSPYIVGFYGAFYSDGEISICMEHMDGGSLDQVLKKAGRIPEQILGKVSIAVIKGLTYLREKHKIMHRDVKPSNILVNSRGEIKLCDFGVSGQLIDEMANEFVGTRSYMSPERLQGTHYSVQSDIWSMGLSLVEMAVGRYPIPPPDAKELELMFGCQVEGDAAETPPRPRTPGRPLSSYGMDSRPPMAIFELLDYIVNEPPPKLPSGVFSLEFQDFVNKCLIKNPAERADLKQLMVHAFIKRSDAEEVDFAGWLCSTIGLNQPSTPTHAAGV
IC50 (Human Mek1 Kinase) [µM],IC50 (Murine colon C26 cells) [µM],IC50 [1] [µM],IC50 [2] [µM],SMILES
> 10,,,,"N#Cc1ncc(F)cc1Nc1ccc(I)cc1F [Example 1, 5-Fluoro-3-(2-fluoro-4-iodo-phenylamino)-pyridine-2-carbonitrile]"
1 to 10,,,,"O=C(O)c1ncc(F)cc1Nc1ccc(I)cc1F [Example 2, 5-Fluoro-3-(2-fluoro-4-iodo-phenylamino)-pyridine-2-carboxylic acid]"
< 1,> 10,1 to 10,> 10,"NC(=O)c1ncc(F)cc1Nc1ccc(I)cc1F [Example 3, 5-Fluoro-3-(2-fluoro-4-iodo-phenylamino)-pyridine-2-carboxylic acid amide]"
< 1,> 10,> 10,> 10,"O=C(O)c1cc(Cl)nnc1Nc1ccc(I)cc1F [Example 4, 6-Chloro-3-(2-fluoro-4-iodo-phenylamino)-pyridazine-4-carboxylic acid]"
1 to 10,> 10,> 10,> 10,"O=C(O)c1cc(N2CCOCC2)nnc1Nc1ccc(I)cc1F [Example 5, 3-(2-Fluoro-4-iodo-phenylamino)-6-morpholin-4-yl-pyridazine-4-carboxylic acid]"
> 10,> 10,> 10,> 10,"COc1cc(C(=O)O)c(Nc2ccc(I)cc2F)nn1 [Example 6, 3-(2-Fluoro-4-iodo-phenylamino)-6-methoxy-pyridazine-4-carboxylic acid]"
> 10,> 10,> 10,> 10,"CC1(C)OC[C@H](CONC(=O)c2cc(Cl)nnc2Nc2ccc(I)cc2F)O1 [Example 7, 6-Chloro-3-(2-fluoro-4-iodo-phenylamino)-pyridazine-4-carboxylic acid (2,2-dimethyl-[1,3]dioxolan-4-ylmethoxy)-amide]"
> 10,,,,"O=C(NOC[C@H](O)CO)c1cc(Cl)nnc1Nc1ccc(I)cc1F [Example 8, 6-Chloro-3-(2-fluoro-4-iodo-phenylamino)-pyridazine-4-carboxylic acid (2,3-dihydroxy-propoxy)-amide]"
< 1,> 10,1 to 10,1 to 10,"NC(=O)c1cc(Cl)nnc1Nc1ccc(I)cc1F [Example 9, 6-Chloro-3-(2-fluoro-4-iodo-phenylamino)-pyridazine-4-carboxylic acid amide]"
1 to 10,,,,"O=C(NCCN1CCOCC1)c1cc(Cl)nnc1Nc1ccc(I)cc1F [Example 10, 6-Chloro-3-(2-fluoro-4-iodo-phenylamino)-pyridazine-4-carboxylic acid (2-morpholin-4-yl-ethyl)-amide]"
< 1,> 10,> 10,> 10,"O=C(O)c1ccc(F)nc1Nc1ccc(I)cc1F [Example 11, 6-fluoro-2-[(2-fluoro-4-iodophenyl)amino]nicotinic acid]"
1 to 10,,,,"CC1(C)OC[C@H](CONC(=O)c2ccc(F)nc2Nc2ccc(I)cc2F)O1 [Example 12, N-{[(4R)-2,2-dimethyl-1,3-dioxolan-4-yl]methoxy}-6-fluoro-2-[(2-fluoro-4-iodophenyl)amino]nicotinamide]"
1 to 10,> 10,1 to 10,> 10,"O=C(NOC[C@H](O)CO)c1ccc(F)nc1Nc1ccc(I)cc1F [Example 13, N—[(R)-2,3-Dihydroxy-propoxy]-6-fluoro-2-[(2-fluoro-4-iodo-phenylamino)]-nicotinamide]"

# From patent publication US7772233B2, “Arylamino N-heteroaryl compounds as MEK inhibitors” (Merck Serono, S.A., priority 2006, dated 2010)
